From PMC10415228 (Saudi Pharmaceutical Journal : SPJ, 2023) come the findings set out here.

The subject of the assay is trypsin (serine protease). In words: serine protease. It counts as biochemical.

Structures are written as SMILES. ≈ marks a conversion by molar mass, not a printed value.

As a reminder, the IC50 is the midpoint of a concentration-inhibition curve. A high value points to a need for much substance. `O=c1c(O)c(-c2ccc(O)c(O)c2)oc2cc(O)cc(O)c12` [Quercetin] yielded an IC50 of 295.44 µg/mL (≈ 978 µM).
